From patent publication US12157746B2, “Tetrahydro-1H-pyrazino[2,1-a]isoindolylquinoline compounds for the treatment of autoimmune disease” (F. HOFFMANN-LA ROCHE AG, priority 2018, dated 2024) come the findings set out here.

A short description of this data set: Human microsomal stability assay. It counts as in vitro ADME. The settings on record: human liver microsomes 0.5 mg/mL, 37° C., pH 7.4, NADPH regenerating system, 0-30 minutes. The method, then: Human Microsomal Stability Assay
Human liver microsomes (Cat. NO.: 452117, Corning, USA) were preincubated with test compound for 10 minutes at 37° C. in 100 mM potassium phosphate buffer, pH 7.4. The reactions were initiated by adding NADPH regenerating system. The final incubation mixtures contained […] test compound, 0.5 mg/mL liver microsomal protein, 1 mM MgCl2, 1 mM NADP, 1 unit/mL isocitric dehydrogenase and 6 mM isocitric acid in 100 mM potassium phosphate buffer, pH 7.4. After incubation times of 0, 3, 6, 9, 15 and 30 minutes at 37° C., 300 μL of cold ACN (including internal standard) was added to 100 μL incubation mixture to terminate the reaction. Following precipitation and centrifugation, 100 μL supernatant will be taken out and added 300 uL water. The amount of compound remaining in the samples was determined by LC-MS/MS. Controls of no NADPH regenerating system at zero and 30 minutes were also prepared and analyzed. The results were categorized as: low (<7.0 mLJmin/kg), medium (7.0-16.2 mL/min/kg) and high (16.2-23.2 mLJmin/kg).
(In general: Microsomes from liver hold many membrane-bound enzymes, among them those of drug oxidation.)
With `C[C@@H]1CN(c2ccc(C#N)c3ncccc23)C[C@@H]2c3ccc(N4CCOCC(N)C4)cc3CN12` (stereo partly drawn) [Example 54, 5-[(4R,10bS)-8-(6-amino-1,4-oxazepan-4-yl)-4-methyl-3,4,6,10b-tetrahydro-1H-pyrazino[2,1-a]isoindol-2-yl]quinoline-8-carbonitrile], the “CL (h)” value is given as 8.9 mL/min/kg. For `C[C@@H]1CN(c2ccc(C#N)c3ncccc23)C[C@@H]2c3ccc(N4CCOC[C@H](N)C4)cc3CN12` [Example 54A, 5-[(4R,10bS)-8-[(6R)-6-amino-1,4-oxazepan-4-yl]-4-methyl-3,4,6,10b-tetrahydro-1H-pyrazino[2,1-a]isoindol-2-yl]quinoline-8-carbonitrile] the value was 7.5 mL/min/kg; for `C[C@@H]1CN(c2ccc(C#N)n3nccc23)C[C@@H]2c3ccc(N4CC[C@@H](N)C4)cc3CN12` [Example 96, 4-[(4R,10bS)-8-[(3R)-3-aminopyrrolidin-1-yl]-4-methyl-3,4,6,10b-tetrahydro-1H-pyrazino[2,1-a]isoindol-2-yl]pyrazolo[1,5-a]pyridine-7-carbonitrile], 6.2 mL/min/kg; for `C[C@@H]1CN(c2ccc(C#N)n3ncc(F)c23)C[C@@H]2c3ccc(N4C[C@H](N)[C@@](C)(O)C4)cc3CN12` [Example 112, 4-[(4R,10bS)-8-[(3S,4S)-4-amino-3-hydroxy-3-methyl-pyrrolidin-1-yl]-4-methyl-3,4,6,10b-tetrahydro-1H-pyrazino[2,1-a]isoindol-2-yl]-3-fluoro-pyrazolo[1,5-a]pyridine-7-carbonitrile], 8.6 mL/min/kg.

As for `C[C@@H]1CN(c2ccc(C#N)c3ncccc23)C[C@@H]2c3ccc(N4CCNC[C@H](O)C4)cc3CN12` [Example 53A, 5-[(4R,10bS)-8-[(6S)-6-hydroxy-1,4-diazepan-1-yl]-4-methyl-3,4,6,10b-tetrahydro-1H-pyrazino[2,1-a]isoindol-2-yl]quinoline-8-carbonitrile], the “CL (h)” value is 8.6 mL/min/kg.

As to `C[C@@H]1CN(c2ccc(C#N)c3ncccc23)C[C@@H]2c3ccc(N4CCN[C@H](CO)C4)cc3CN12` [Example 12, 5-[(4R,10bS)-8-[(3S)-3-(hydroxymethyl)piperazin-1-yl]-4-methyl-3,4,6,10b-tetrahydro-1H-pyrazino[2,1-a]isoindol-2-yl]quinoline-8-carbonitrile], the “CL (h)” value was 6.2 mL/min/kg. For `C[C@@H]1CN(c2ccc(C#N)c3ncccc23)C[C@@H]2c3ccc(N4C[C@@H](N)[C@](C)(O)C4)cc3CN12` [Example 45, 5-[(4R,10bS)-4-methyl-8-[trans-(3R,4R)-4-amino-3-hydroxy-3-methyl-pyrrolidin-1-yl]-3,4,6,10b-tetrahydro-1H-pyrazino[2,1-a]isoindol-2-yl]quinoline-8-carbonitrile] the value was 6.2 mL/min/kg; for `[2H]c1ccc2c(N3C[C@@H](C)N4Cc5cc(N6CC7CNCC(C6)O7)ccc5[C@H]4C3)ccc(C#N)c2n1` [Example 93, 5-[(4R,10bS)-4-methyl-8-(9-oxa-3,7-diazabicyclo[3.3.1]nonan-3-yl)-3,4,6,10b-tetrahydro-1H-pyrazino[2,1-a]isoindol-2-yl]-2-deuterio-quinoline-8-carbonitrile], 8.4 mL/min/kg. For the compound `C[C@@H]1CN(c2ccc(C#N)c3ncccc23)C[C@@H]2c3ccc(N4CCC(N)(CO)C4)cc3CN12` (stereo partly drawn) [Example 19, 5-[(4R,10bS)-8-[3-amino-3-(hydroxymethyl)pyrrolidin-1-yl]-4-methyl-3,4,6,10b-tetrahydro-1H-pyrazino[2,1-a]isoindol-2-yl]quinoline-8-carbonitrile], the “CL (h)” value is given as 7.7 mL/min/kg.

For `[2H]c1ccc2c(N3C[C@@H](C)N4Cc5cc(N6CC(C)(N)C6)ccc5[C@H]4C3)ccc(C#N)c2n1` [Example 92, 5-[(4R,10bS)-8-(3-amino-3-methyl-azetidin-1-yl)-4-methyl-3,4,6,10b-tetrahydro-1H-pyrazino[2,1-a]isoindol-2-yl]-2-deuterio-quinoline-8-carbonitrile], the “CL (h)” value amounted to 6.4 mL/min/kg. The value for `C[C@@H]1CN(c2ccc(C#N)c3ncccc23)C[C@@H]2c3ccc(N4C[C@@H](F)[C@@H](N)C4)cc3CN12` [Example 46, 5-[(4R,10bS)-8-[(3S,4R)-3-amino-4-fluoro-pyrrolidin-1-yl]-4-methyl-3,4,6,10b-tetrahydro-1H-pyrazino[2,1-a]isoindol-2-yl]quinoline-8-carbonitrile] was 8.8 mL/min/kg; that for `CO[C@@H]1CN(c2ccc3c(c2)CN2C3CN(c3ccc(C#N)c4ncccc34)C[C@H]2C)C[C@@H]1N` (relative stereo) [Example 17, 5-[(4R,10bS)-8-[cis-3-amino-4-methoxy-pyrrolidin-1-yl]-4-methyl-3,4,6,10b-tetrahydro-1H-pyrazino[2,1-a]isoindol-2-yl]quinoline-8-carbonitrile] was 6.2 mL/min/kg. For the compound `C[C@@H]1CN(c2ccc(C#N)c3ncccc23)C[C@@H]2c3ccc(N4CCOC5CNCC54)cc3CN12` (stereo partly drawn) [Example 52, 5-[(4R,10bS)-8-(3,4a,5,6,7,7a-hexahydro-2H-pyrrolo[3,4-b][1,4]oxazin-4-yl)-4-methyl-3,4,6,10b-tetrahydro-1H-pyrazino[2,1-a]isoindol-2-yl]quinoline-8-carbonitrile], the “CL (h)” value was found to be 8.1 mL/min/kg. The value for `C[C@@H]1CN(c2ccc(C#N)c3ncccc23)C[C@@H]2c3ccc(NC4CNC4)cc3CN12` [Example 28, 5-[(4R,10S)-8-(azetidin-3-ylamino)-4-methyl-3,4,6,10b-tetrahydro-1H-pyrazino[2,1-a]isoindol-2-yl]quinoline-8-carbonitrile] was 8.7 mL/min/kg. For the compound `C[C@@H]1CN(c2ccc(C#N)c3ncccc23)CC2c3ccc(N4C[C@H](N)[C@@H](O)C4)cc3CN21` (relative stereo) [Example 21, 5-[(4R,10bS)-8-[trans-3-amino-4-hydroxy-pyrrolidin-1-yl]-4-methyl-3,4,6,10b-tetrahydro-1H-pyrazino[2,1-a]isoindol-2-yl]quinoline-8-carbonitrile], the “CL (h)” value came out at 6.2 mL/min/kg.

For the compound `C[C@@H]1CN(c2ccc(C#N)c3ncsc23)C[C@@H]2c3ccc(N4CCNCC4)cc3CN12` [Example 6, 7-[(4R,10bS)-4-methyl-8-piperazin-1-yl-3,4,6,10b-tetrahydro-1H-pyrazino[2,1-a]isoindol-2-yl]-1,3-benzothiazole-4-carbonitrile], the “CL (h)” value worked out at 6.6 mL/min/kg.

Turning to `C[C@@H]1CN(c2ccc(C#N)c3ncccc23)C[C@@H]2c3ccc(N4C[C@@H](N)[C@](C)(O)C4)cc3CN12` [Example 45A, 5-[(4R,10bS)-8-[(3R,4R)-4-amino-3-hydroxy-3-methyl-pyrrolidin-1-yl]-4-methyl-3,4,6,10b-tetrahydro-1H-pyrazino[2,1-a]isoindol-2-yl]quinoline-8-carbonitrile], the “CL (h)” value was determined as 6.2 mL/min/kg. `C[C@@H]1CN(c2ccc(C#N)c3ncccc23)C[C@@H]2c3ccc(OCCN(C)C)cc3CN12` [Example 25, 5-[(4R,10bS)-8-[2-(dimethylamino)ethoxy]-4-methyl-3,4,6,10b-tetrahydro-1H-pyrazino[2,1-a]isoindol-2-yl]quinoline-8-carbonitrile]: the “CL (h)” value was determined as 8.0 mL/min/kg.

With `C[C@@H]1CN(c2ccc(C#N)c3ncccc23)C[C@@H]2c3ccc(N4C[C@@H](N)[C@H](O)C4)cc3CN12` (single isomer, unassigned) [Example 40B], the “CL (h)” value is listed as 7.6 mL/min/kg.
